From patent US7351699B1, “Use of DHEA or precursors or metabolic derivatives thereof as a depigmenting agent” (L'Oreal, priority 1999, dated 2008)

Columns and labels:
[1] = test system: pigmentation marks on the skin (back of one hand); assay: Clinical evaluation of pigmentation marks (visual overall score 0 to 7 by an expert); assay type: in vivo; details: gelled oil-in-water emulsion with 1% by weight DHEA, applied morning and evening for four months to the back of one hand, 20 women 55 to 70 years old, score constant on untreated hand, FIG. 1
Experimental: (§1) A gelled oil-in-water emulsion, containing 1% by weight of DHEA as sole active agent, was tested on a group of 20 women from 55 to 70 years old. The emulsion was applied morning and evening for four months to the back of one hand.
The marks present on the skin were evaluated before and after treatment by visual observation made by an expert, giving the marks an overall score from 0 to 7 as a function of their number, their size and their intensity (clinical evaluation).

[2] = test system: skin pigmentation (back of one hand); assay: Biophysical evaluation by colorimetry (Minolta CR200, parameter b*); assay type: in vivo; details: gelled oil-in-water emulsion with 1% by weight DHEA, applied morning and evening for four months to the back of one hand; 20 women 55 to 70 years old; decrease greater than on untreated hand; FIG. 2
Experimental: as §1
They were also evaluated by colorimetry, using a Minolta CR200 […] (biophysical evaluation). This apparatus describes the colors in a three-dimensional space, using the system of coordinates L, a* and b* recommended by the International Commission on Illumination, in which L* represents the luminance or clarity of the color ([…]), a* is the separation component between green (negative) and red (positive) and is correlated to the skin erythema, and b* varies from blue (negative) to yellow (positive) and represents the skin pigmentation. This parameter b* was used to evaluate the change in the marks in the course of the treatment. It is the result of the average of six individual measurements taken per zone and per measurement period.

Compound: C[C@]12CC[C@H](O)CC1=CC[C@@H]1[C@@H]2CC[C@]2(C)C(=O)CC[C@@H]12 [DHEA, dehydroepiandrosterone]
- overall clinical score of the pigmentation marks [1]: improvement in the overall clinical score
- component b of the color of the skin (skin pigmentation) [2]: decrease in the component b of the color of the skin
